Columns and labels:
[1] = test system: normal fibroblast cell line, WI-38; assay: MTT cytotoxicity in normal fibroblasts WI-38; conditions: Homo sapiens, WI-38, read-out: IC50 (µM) WI-38
Description: The MTT assay was performed to evaluate the in vitro antitumor activity of the synthesized 4-anilinoquinazolines according to a previously reported method [59, 60, 61, 62, 63].

[2] = test system: MCF7 (mammary gland breast cancer); assay: MTT antiproliferative assay, MCF7; conditions: Homo sapiens, MCF7, read-out: IC50 (µM) MCF7
Description: (§1) The cell lines mentioned above were used to determine the inhibitory effects of the compounds on cell growth using the MTT assay.

[3] = test system: HeLa (cervical epithelioid carcinoma); assay: MTT antiproliferative assay, HeLa; conditions: Homo sapiens, read-out: IC50 (µM) HeLa
Description: as §1

[4] = test system: HCT116 (colorectal carcinoma); assay: MTT antiproliferative assay, HCT116; conditions: Homo sapiens, HCT-116, read-out: IC50 (µM) HCT116
Description: as §1

[5] = test system: HepG2 (hepatocellular carcinoma); assay: MTT antiproliferative assay, HepG2; conditions: Homo sapiens, HepG2, read-out: IC50 (µM) HepG2
Description: as §1

[6] = molecular target: T1, CDK9/CycT1 (Homo sapiens, UniProt P50750); assay: Ligand efficiency and ligand lipophilic efficiency (DataWarrior); conditions: for LE: LE=−RTlnIC50/N; for LLE: LLE=pIC50−clogP
Description: Ligand efficiency is an important parameter that is widely used in the development of drug measures to quantify the molecular properties, particularly the size and lipophilicity of small molecules, required to gain binding affinity to a drug target. The LE values of the synthesized compounds were measured using DataWarrior employing the following equation [48]: LE=−RTlnIC50/N where R is the universal gas constant, T is the absolute temperature in Kelvin, and N represents the number of heavy atoms, that is, non-hydrogen atoms in the drug.
LE is widely used for the selection and optimization of fragments, hits, and leads. […] Compounds with LE values higher than 0.3 are promising lead compounds.
In drug discovery and development, it is challenging to optimize the compound activity while maintaining a constant lipophilicity. As a result, LLE is an effective approach to control molecule lipophilicity to evade any “molecular obesity” through lead optimization. These were obtained via DataWarrior, according to the following equation [50]: LLE=pIC50−clogP
An acceptable lead compound should have an LLE value ≥5. As depicted in Table 6, 5j has acceptable LLE values. However, other compounds have values below the recommended limit.

[7] = molecular target: T1, CDK9/CycT1; assay: In vitro CDK9/cyclin T1 enzyme inhibition assay
Description: (§2) The CDK enzyme assay was performed as previously described [63].

[8] = molecular target: CDK7/CycT1 (Homo sapiens, UniProt P50613); assay: In vitro CDK7 enzyme inhibition assay
Description: as §2

[9] = test system: HCT116, HepG2, HeLa, MCF7 cancer cell lines; assay: MTT assay, ranges over the cancer cell line panel; conditions: Homo sapiens, read-out: IC50 range over the tested cancer cell lines
Description: as §1

[10] = molecular target: CDK8 (Homo sapiens, UniProt P49336); assay: In vitro CDK8 enzyme inhibition assay
Description: as §2

[11] = IC50 (µM) CDK9/CycT1, dose-response curves, repeated in Table 6
[12] = pIC 50, from the CDK9 IC50 of Table 6

Chain of CDK7/CycT1 (P50613 whole entry): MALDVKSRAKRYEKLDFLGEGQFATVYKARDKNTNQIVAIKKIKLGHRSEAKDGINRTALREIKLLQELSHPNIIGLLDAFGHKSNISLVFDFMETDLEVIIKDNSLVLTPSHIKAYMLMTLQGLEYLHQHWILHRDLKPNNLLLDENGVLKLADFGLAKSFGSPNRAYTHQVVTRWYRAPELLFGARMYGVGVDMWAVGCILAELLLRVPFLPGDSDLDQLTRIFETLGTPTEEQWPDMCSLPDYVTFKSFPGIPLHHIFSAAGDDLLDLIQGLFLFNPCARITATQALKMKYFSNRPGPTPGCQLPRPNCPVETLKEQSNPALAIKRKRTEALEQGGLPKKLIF
Chain of CDK7/CycT1 (P51946 whole entry partner): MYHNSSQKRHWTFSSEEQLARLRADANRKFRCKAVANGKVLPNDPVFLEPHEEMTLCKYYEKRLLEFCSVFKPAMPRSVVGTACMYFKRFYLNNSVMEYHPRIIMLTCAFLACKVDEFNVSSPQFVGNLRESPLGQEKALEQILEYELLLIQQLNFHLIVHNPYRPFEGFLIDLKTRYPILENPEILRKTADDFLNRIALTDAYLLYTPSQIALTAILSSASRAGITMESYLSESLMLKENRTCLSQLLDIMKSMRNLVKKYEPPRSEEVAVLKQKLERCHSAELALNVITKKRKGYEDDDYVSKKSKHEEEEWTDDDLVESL
T1 sequence (P50750 whole entry): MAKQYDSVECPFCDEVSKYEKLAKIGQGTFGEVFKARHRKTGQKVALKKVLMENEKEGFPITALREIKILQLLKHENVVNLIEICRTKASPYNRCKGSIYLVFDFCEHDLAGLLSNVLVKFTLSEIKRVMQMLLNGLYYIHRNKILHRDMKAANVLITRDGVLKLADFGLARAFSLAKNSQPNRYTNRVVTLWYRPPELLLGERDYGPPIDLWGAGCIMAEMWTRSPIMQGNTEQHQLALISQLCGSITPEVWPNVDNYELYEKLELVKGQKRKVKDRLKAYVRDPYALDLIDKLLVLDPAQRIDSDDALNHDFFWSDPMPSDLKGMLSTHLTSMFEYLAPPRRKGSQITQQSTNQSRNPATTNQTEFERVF
T1 sequence (O60563 whole entry partner): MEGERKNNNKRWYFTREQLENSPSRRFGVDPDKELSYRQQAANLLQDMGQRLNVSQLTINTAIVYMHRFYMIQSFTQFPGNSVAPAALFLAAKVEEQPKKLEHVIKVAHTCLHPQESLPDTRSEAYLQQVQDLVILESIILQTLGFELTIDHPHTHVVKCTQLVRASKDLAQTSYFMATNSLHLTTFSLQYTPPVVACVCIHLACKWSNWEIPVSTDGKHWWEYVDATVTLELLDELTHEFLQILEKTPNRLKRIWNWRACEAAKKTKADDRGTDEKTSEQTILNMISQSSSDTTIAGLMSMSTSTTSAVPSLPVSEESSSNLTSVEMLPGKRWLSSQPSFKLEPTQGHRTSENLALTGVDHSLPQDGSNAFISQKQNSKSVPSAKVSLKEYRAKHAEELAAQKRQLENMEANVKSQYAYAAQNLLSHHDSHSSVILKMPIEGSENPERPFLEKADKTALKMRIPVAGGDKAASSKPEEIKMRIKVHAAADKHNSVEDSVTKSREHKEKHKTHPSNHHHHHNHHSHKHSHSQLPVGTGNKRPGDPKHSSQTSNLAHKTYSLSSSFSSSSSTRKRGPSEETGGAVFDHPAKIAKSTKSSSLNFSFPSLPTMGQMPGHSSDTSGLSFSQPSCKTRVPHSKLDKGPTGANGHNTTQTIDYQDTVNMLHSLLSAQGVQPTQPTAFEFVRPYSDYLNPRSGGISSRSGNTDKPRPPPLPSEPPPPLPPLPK
Chain of CDK8 (P49336 whole entry): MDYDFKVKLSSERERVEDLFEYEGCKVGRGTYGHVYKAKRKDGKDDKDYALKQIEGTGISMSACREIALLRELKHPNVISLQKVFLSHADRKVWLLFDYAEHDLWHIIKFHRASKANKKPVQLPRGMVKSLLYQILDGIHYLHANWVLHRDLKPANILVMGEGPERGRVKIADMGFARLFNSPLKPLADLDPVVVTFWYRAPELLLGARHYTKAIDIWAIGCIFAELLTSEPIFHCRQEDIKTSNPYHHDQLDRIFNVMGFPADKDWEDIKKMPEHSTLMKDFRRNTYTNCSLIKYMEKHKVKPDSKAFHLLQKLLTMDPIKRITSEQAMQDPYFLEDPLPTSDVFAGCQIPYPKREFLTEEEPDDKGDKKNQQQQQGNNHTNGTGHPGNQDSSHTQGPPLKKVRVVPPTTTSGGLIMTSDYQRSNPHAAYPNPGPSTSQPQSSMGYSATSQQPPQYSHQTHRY
Chain of CDK8 (P24863 whole entry partner): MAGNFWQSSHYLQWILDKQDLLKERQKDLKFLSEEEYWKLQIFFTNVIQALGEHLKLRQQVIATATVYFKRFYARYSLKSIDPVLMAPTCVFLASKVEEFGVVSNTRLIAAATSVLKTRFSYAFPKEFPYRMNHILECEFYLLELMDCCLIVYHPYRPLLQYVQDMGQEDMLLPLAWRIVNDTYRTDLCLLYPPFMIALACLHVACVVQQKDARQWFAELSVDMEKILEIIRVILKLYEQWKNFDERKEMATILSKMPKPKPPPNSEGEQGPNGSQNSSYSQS

Structure (SMILES) | IC50 [2] [µM] | IC50 [3] [µM] | IC50 [4] [µM] | IC50 [5] [µM] | melting point [°C] | LE [6] | LLE [6] | IC50 [7, 11] [µM] | IC50 [8] [nM] | IC50 [9] [µM] | IC50 [10] [µM] | IC50 [7, 12] [µM] | IC50 [1] [µM]
Nc1nccc(-c2ccc(Cl)cc2)n1 [Compound 3b, 4-(4-chlorophenyl)pyrimidin-2-amine] | 10.2 ± 0.9 | 15.2 ± 1.2 | 29.1 ± 2 | 18.9 ± 1.3 | – | – | – | – | – | – | – | – | 93.9 ± 5.1
COc1ccc(-c2ccnc(N)n2)cc1 [Compound 3c, 4-(4-methoxyphenyl)pyrimidin-2-amine] | 62.1 ± 3.6 | 86.2 ± 4.3 | > 100 | 74.4 ± 3.7 | – | – | – | – | – | – | – | – | 58.1 ± 3.6
Nc1nccc(-c2ccc(C(F)(F)F)cc2)n1 [Compound 3d, 4-(4-(trifluoromethyl)phenyl)pyrimidin-2-amine] | 87.1 ± 4.6 | > 100 | > 100 | 91.7 ± 4.9 | – | – | – | – | – | – | – | – | > 100
Nc1nccc(-c2ccc(OC(F)(F)F)cc2)n1 [Compound 3e, 4-(4-(trifluoromethoxy)phenyl)pyrimidin-2-amine] | 26.3 ± 1.8 | 47 ± 2.6 | 61.3 ± 3.5 | 39.1 ± 2.3 | – | – | – | – | – | – | – | – | 74.6 ± 4.2
N#Cc1cnc(N)nc1-c1ccccc1 [Compound 3f, 2-amino-4-phenylpyrimidine-5-carbonitrile] | 6.08 ± 0.4 | 18.2 ± 1.4 | 30.5 ± 2.1 | 8.18 ± 0.8 | – | – | – | – | – | – | – | – | 55.2 ± 3.2
N#Cc1cnc(N)nc1-c1ccc(Cl)cc1 [Compound 3g, 2-amino-4-(4-chlorophenyl)pyrimidine-5-carbonitrile] | 52.9 ± 2.9 | 34.7 ± 2.1 | 45 ± 2.6 | 44.2 ± 2.5 | – | – | – | – | – | – | – | – | 82.7 ± 4.8
N#Cc1cnc(N)nc1-c1ccc(F)cc1 [Compound 3h, 2-amino-4-(4-fluorophenyl)pyrimidine-5-carbonitrile] | 59 ± 3.4 | 82.5 ± 4.1 | 94.2 ± 5.3 | 67 ± 3.5 | 214 to 216 | – | – | – | – | – | – | – | > 100
COc1cccc2c1C(=O)c1c(O)c3c(c(O)c1C2=O)C[C@@](O)(C(=O)CO)C[C@@H]3O[C@H]1C[C@H](N)[C@H](O)[C@H](C)O1 [DOX, Doxorubicin, reference compound] | – | – | – | 4.5 ± 0.2 | – | – | – | – | – | – | – | – | –

Further lines, with some results ahead:

IC50 [2] [µM] | IC50 [3] [µM] | IC50 [4] [µM] | IC50 [5] [µM] | melting point [°C] | LE [6] | LLE [6] | IC50 [7, 11] [µM] | IC50 [8] [nM] | IC50 [9] [µM] | IC50 [10] [µM] | IC50 [7, 12] [µM] | Structure (SMILES) | IC50 [1] [µM]
3.84 ± 0.2 | 11.5 ± 0.9 | 25.9 ± 1.8 | 7.84 ± 0.6 | – | 0.3869 | 3.9758 | 0.449 | 875 | 1 to 10 | 2.3 | – | NS(=O)(=O)c1cccc(Nc2nccc(-c3ccccc3)n2)c1 [Compound 5a, 3-((4-Phenylpyrimidin-2-yl)amino)benzenesulfonamide] | 37.9 ± 2.5
43.7 ± 2.5 | 36.3 ± 2.3 | 53.8 ± 2.9 | 40.9 ± 2.4 | – | 0.3683 | 3.3262 | – | 3010 | – | 3.81 | 0.0589 | NS(=O)(=O)c1cccc(Nc2nccc(-c3ccc(Cl)cc3)n2)c1 [Compound 5b, 3-((4-(4-Chlorophenyl)pyrimidin-2-yl)amino)benzenesulfonamide] | 78.5 ± 4.4
16.1 ± 1.3 | 29.8 ± 2.1 | 38.1 ± 2.4 | 24.4 ± 1.8 | – | 0.3538 | 4.0076 | – | 966 | – | 6.3 | 0.246 | COc1ccc(-c2ccnc(Nc3cccc(S(N)(=O)=O)c3)n2)cc1 [Compound 5c, 3-((4-(4-Methoxyphenyl)pyrimidin-2-yl)amino)benzenesulfonamide] | 56.3 ± 3.4
8.72 ± 0.7 | 22.2 ± 1.7 | 33.8 ± 2.2 | 11.7 ± 1 | 150 to 152 | 0.3254 | 3.0453 | – | 661 | 1 to 10 | 0.716 | 0.0729 | NS(=O)(=O)c1cccc(Nc2nccc(-c3ccc(C(F)(F)F)cc3)n2)c1 [Compound 5d, 3-((4-(4-(Trifluoromethyl)phenyl)pyrimidin-2-yl)amino)benzenesulfonamide] | 51.9 ± 3.1
74 ± 4.2 | 38.8 ± 2.5 | 56.6 ± 3.1 | 81.3 ± 4.1 | 252 to 254 | 0.3129 | 2.7773 | – | 1100 | – | 1.89 | 0.149 | NS(=O)(=O)c1cccc(Nc2nccc(-c3ccc(OC(F)(F)F)cc3)n2)c1 [Compound 5e, 3-((4-(4-(Trifluoromethoxy)phenyl)pyrimidin-2-yl)amino)benzenesulfonamide] | 64.3 ± 3.9
57.2 ± 3.2 | 51.4 ± 2.8 | 65.9 ± 3.7 | 46.8 ± 2.6 | – | 0.3694 | 3.8517 | – | 479 | – | 1.53 | 0.2 | NS(=O)(=O)c1cccc(Nc2nccc(-c3ccc(F)cc3)n2)c1 [Compound 5f, 3-((4-(4-Fluorophenyl)pyrimidin-2-yl)amino)benzenesulfonamide] | 26.9 ± 2
68.2 ± 3.9 | 42.6 ± 2.4 | 57.5 ± 3.4 | 84.6 ± 4.3 | 265 to 267 | 0.3393 | 4.8413 | 1.74 | 1340 | – | 4.19 | – | NS(=O)(=O)c1cccc(Nc2nccc(-c3ccc([N+](=O)[O-])cc3)n2)c1 [Compound 5g, 3-((4-(4-Nitrophenyl)pyrimidin-2-yl)amino)benzenesulfonamide] | 31.1 ± 2.3
14.3 ± 1.2 | 25.4 ± 1.9 | 35.1 ± 2.3 | 28 ± 2.1 | – | 0.3868 | 4.8844 | – | 3180 | – | 6.56 | 0.191 | NS(=O)(=O)c1cccc(Nc2nccc(-c3ccccn3)n2)c1 [Compound 5h, 3-((4-(Pyridin-2-yl)pyrimidin-2-yl)amino)benzenesulfonamide] | > 100
32.2 ± 2.1 | 63.7 ± 3.2 | 72.2 ± 4 | 52.6 ± 2.9 | – | 0.3868 | 4.9754 | 1.67 | 4330 | – | 4.37 | 1.67 | NS(=O)(=O)c1cccc(Nc2nccc(-c3ccncc3)n2)c1 [Compound 5i, 3-((4-(Pyridin-4-yl)pyrimidin-2-yl)amino)benzenesulfonamide] | 19.7 ± 1.3
71.3 ± 4 | 92.4 ± 4.8 | > 100 | 85.3 ± 4.3 | 288 to 290 | 0.3867 | 5.5526 | – | 1460 | – | 4.05 | 0.111 | NS(=O)(=O)c1cccc(Nc2nccc(-c3cnccn3)n2)c1 [Compound 5j, 3-((4-(Pyrazin-2-yl)pyrimidin-2-yl)amino)benzenesulfonamide] | 60.5 ± 3.7
39.5 ± 2.3 | 66.2 ± 3.4 | 75.3 ± 4.3 | 48.6 ± 2.7 | – | 0.3384 | 3.4615 | 0.613 | 1730 | – | 3.66 | – | N#Cc1cnc(Nc2cccc(S(N)(=O)=O)c2)nc1-c1ccc(Cl)cc1 [Compound 5k, 3-((4-(4-Chlorophenyl)-5-cyanopyrimidin-2-yl)amino)benzenesulfonamide] | 27.1 ± 2.2
46 ± 2.6 | 74.9 ± 3.7 | 83.7 ± 4.6 | 56.2 ± 3.2 | – | 0.3394 | 3.9856 | 0.967 | 1920 | – | 1.65 | – | N#Cc1cnc(Nc2cccc(S(N)(=O)=O)c2)nc1-c1ccc(F)cc1 [Compound 5l, 3-((5-Cyano-4-(4-fluorophenyl)pyrimidin-2-yl)amino)benzenesulfonamide] | 39.3 ± 2.7
76.3 ± 4.3 | 9.83 ± 0.7 | 23.6 ± 1.5 | 88.4 ± 4.6 | – | 0.4289 | 2.9828 | 1.96 | 703 | – | 1.43 | – | N#Cc1cnc(Nc2ccccc2)nc1-c1ccccc1 [Compound 5m, 4-Phenyl-2-(phenylamino)pyrimidine-5-carbonitrile] | 73.3 ± 4.1

Reference: paper PMC10254914, “Targeting Transcriptional CDKs 7, 8, and 9 with Anilinopyrimidine Derivatives as Anticancer Agents: Design, Synthesis, Biological Evaluation and In Silico Studies” (Molecules, 2023)
